Experimental data reported in patent US20240269139A1, “COMPOUNDS FOR TARGETED PROTEIN DEGRADATION OF KINASES” (DANA-FARBER CANCER INSTITUTE, INC., priority 2020, published 2024).
Read-outs that look alike come from different tables or passages of the source.

Assays:
Format in all cases: cell-based
[1] = test system: protein kinases (human kinome); details: for logFC GSK3B: experiment wp056; for logFC: CDK9 (P50750-2) protein abundance, degrader vs DMSO, down; for logFC CSNK1D: experiment wp114
Source text: (§1) Although development of targeted protein degraders requires a POI binder, among already-liganded proteins such as kinases, it was hypothesized that different targets would have a different propensity for current approaches to degrader-mediated destruction, which was termed ‘degradability’. […] It was rationalized that the probability of identifying the same kinase as a false positive in multiple treatments is low, therefore this analysis served to also assess the robustness of our data and subsequent interpretations. […] Overall, 62 protein kinases were degraded in more than 10 independent treatments, and remarkably, 9 of these (CDK4, AURKA, FER, WEE1, BLK. LIMK2, CDK6, GAK, LIMK1) were each degraded in at least 40 of the 154 independent treatments, emphasizing their predisposition to induced degradation (FIG. 1G; Appendix I).
(§2) Next, the frequency of degradation assessment was corrected for over-representation of molecules in the full dataset by omitting replicate profiling of compounds under different experimental conditions, to remove any bias. […] Unsurprisingly, the top degradable kinases mirror those from the previous analysis (CDK4, AURKA, FER, WEE1, BLK), confirming that in sufficiently large datasets, even with over-representation of certain molecules, frequency of degradation is a good measure of general tractability.

[2] = target: protein kinases (human kinome) (Homo sapiens, UniProt Q9NSY1); details: BMP2K Q9NSY1; experiment wp056
Source text: as §1, §2

[3] = target: protein kinases (human kinome) (Homo sapiens, UniProt Q2M2I8)
Source text: as §1, §2

[4] = target: T1, protein kinases (human kinome) (Homo sapiens, UniProt O14965)
T1 sequence (O14965 1-403): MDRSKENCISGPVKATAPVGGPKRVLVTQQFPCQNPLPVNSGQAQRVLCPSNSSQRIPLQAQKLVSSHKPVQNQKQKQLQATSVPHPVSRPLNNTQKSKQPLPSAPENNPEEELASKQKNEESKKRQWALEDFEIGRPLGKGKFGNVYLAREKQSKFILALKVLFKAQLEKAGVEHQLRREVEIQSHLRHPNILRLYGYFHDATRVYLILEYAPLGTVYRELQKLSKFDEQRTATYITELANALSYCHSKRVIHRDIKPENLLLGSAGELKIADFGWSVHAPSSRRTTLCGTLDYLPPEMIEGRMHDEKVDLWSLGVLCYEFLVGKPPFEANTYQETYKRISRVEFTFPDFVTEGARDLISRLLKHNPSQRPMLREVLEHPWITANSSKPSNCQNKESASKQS
Source text: as §1, §2

[5] = target: protein kinases (human kinome) (Homo sapiens, UniProt P49840); details: GSK3A P49840; experiment wp056
Source text: as §1, §2

[6] = target: protein kinases (human kinome) (Homo sapiens, UniProt P16591); details: for logFC of FER (P16591-1): down; for logFC of FER: FER P16591-1
Source text: as §1, §2

[7] = target: protein kinases (human kinome) (Homo sapiens, UniProt Q00535)
Source text: as §1, §2

[8] = target: protein kinases (human kinome) (Homo sapiens, UniProt P50613); details: for logFC: CDK7 (P50613) protein abundance, degrader vs DMSO, down; for logFC CDK7: CDK7 P50613
Source text: as §1, §2

[9] = target: protein kinases (human kinome) (Homo sapiens, UniProt P51451)
Source text: as §1, §2

[10] = target: protein kinases (human kinome) (Homo sapiens, UniProt P24941)
Source text: as §1, §2

[11] = target: protein kinases (human kinome) (Homo sapiens, UniProt Q14289)
Source text: as §1, §2

[12] = target: protein kinases (human kinome) (Homo sapiens, UniProt P30291); details: experiment wp016
Source text: as §1, §2

[13] = target: protein kinases (human kinome) (Homo sapiens, UniProt P53671); details: experiment wp016
Source text: as §1, §2

[14] = target: protein kinases (human kinome) (Homo sapiens, UniProt Q9NYV4)
Source text: as §1, §2

[15] = target: protein kinases (human kinome) (Homo sapiens, UniProt Q00537); details: for logFC of CDK17: Accession Q00537; for logFC CDK17 (Q00537): direction of change down
Source text: as §1, §2

[16] = target: T2, protein kinases (human kinome) (Homo sapiens, UniProt Q08881); details: experiment wp016
T2 sequence (Q08881 1-620): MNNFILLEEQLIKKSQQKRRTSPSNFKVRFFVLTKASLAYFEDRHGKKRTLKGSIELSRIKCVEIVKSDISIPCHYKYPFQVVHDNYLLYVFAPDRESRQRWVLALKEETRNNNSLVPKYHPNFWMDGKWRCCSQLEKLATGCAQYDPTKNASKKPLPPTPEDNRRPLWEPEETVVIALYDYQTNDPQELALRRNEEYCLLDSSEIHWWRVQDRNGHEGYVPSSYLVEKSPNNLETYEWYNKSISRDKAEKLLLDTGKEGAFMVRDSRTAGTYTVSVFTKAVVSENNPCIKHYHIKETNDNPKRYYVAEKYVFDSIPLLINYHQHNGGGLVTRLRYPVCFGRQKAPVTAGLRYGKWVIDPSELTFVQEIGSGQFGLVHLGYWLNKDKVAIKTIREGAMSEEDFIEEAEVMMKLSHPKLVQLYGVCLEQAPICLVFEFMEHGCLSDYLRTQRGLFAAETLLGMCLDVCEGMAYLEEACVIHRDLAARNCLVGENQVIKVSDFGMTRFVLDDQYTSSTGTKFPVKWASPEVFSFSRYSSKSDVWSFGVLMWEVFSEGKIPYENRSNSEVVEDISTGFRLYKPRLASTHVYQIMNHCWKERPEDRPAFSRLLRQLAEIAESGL
Source text: as §1, §2

[17] = target: protein kinases (human kinome) (Homo sapiens, UniProt Q05397); details: experiment wp011
Source text: as §1, §2

[18] = target: protein kinases (human kinome) (Homo sapiens, UniProt P45984); details: MAPK9 P45984-1; experiment wp146
Source text: as §1, §2

[19] = target: protein kinases (human kinome) (Homo sapiens, UniProt P06493); details: CDK1 P06493; experiment wp146
Source text: as §1, §2

[20] = target: protein kinases (human kinome) (Homo sapiens, UniProt Q8TDR2); details: experiment wp114
Source text: as §1, §2

[21] = experiment wp016, direction of change down
[22] = experiment wp146, direction of change down

Sequence of protein kinases (human kinome) (Homo sapiens, UniProt Q00537) (Q00537 whole entry): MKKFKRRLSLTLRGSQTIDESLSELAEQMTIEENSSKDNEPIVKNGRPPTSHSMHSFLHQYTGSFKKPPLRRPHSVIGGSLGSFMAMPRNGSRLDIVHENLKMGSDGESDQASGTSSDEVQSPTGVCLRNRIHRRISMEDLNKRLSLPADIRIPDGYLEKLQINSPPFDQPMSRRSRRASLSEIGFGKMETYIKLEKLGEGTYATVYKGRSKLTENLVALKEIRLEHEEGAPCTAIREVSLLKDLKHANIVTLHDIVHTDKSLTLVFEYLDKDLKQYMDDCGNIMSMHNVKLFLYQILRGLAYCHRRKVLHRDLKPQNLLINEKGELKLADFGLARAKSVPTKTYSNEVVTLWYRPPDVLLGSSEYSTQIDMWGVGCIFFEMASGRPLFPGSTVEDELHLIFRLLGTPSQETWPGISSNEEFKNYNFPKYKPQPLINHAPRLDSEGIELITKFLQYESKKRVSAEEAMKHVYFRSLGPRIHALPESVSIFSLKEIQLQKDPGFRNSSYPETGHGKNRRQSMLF
Sequence of protein kinases (human kinome) (Homo sapiens, UniProt Q00535) (Q00535 whole entry): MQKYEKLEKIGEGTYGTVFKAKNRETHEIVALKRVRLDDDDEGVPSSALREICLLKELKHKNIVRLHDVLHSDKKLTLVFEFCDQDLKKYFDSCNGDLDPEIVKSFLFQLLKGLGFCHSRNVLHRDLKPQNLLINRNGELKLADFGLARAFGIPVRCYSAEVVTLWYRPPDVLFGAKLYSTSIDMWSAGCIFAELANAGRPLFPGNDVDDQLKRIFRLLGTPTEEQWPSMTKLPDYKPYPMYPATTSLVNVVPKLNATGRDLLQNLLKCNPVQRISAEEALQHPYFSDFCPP
Sequence of protein kinases (human kinome) (Homo sapiens, UniProt Q9NYV4) (Q9NYV4 whole entry): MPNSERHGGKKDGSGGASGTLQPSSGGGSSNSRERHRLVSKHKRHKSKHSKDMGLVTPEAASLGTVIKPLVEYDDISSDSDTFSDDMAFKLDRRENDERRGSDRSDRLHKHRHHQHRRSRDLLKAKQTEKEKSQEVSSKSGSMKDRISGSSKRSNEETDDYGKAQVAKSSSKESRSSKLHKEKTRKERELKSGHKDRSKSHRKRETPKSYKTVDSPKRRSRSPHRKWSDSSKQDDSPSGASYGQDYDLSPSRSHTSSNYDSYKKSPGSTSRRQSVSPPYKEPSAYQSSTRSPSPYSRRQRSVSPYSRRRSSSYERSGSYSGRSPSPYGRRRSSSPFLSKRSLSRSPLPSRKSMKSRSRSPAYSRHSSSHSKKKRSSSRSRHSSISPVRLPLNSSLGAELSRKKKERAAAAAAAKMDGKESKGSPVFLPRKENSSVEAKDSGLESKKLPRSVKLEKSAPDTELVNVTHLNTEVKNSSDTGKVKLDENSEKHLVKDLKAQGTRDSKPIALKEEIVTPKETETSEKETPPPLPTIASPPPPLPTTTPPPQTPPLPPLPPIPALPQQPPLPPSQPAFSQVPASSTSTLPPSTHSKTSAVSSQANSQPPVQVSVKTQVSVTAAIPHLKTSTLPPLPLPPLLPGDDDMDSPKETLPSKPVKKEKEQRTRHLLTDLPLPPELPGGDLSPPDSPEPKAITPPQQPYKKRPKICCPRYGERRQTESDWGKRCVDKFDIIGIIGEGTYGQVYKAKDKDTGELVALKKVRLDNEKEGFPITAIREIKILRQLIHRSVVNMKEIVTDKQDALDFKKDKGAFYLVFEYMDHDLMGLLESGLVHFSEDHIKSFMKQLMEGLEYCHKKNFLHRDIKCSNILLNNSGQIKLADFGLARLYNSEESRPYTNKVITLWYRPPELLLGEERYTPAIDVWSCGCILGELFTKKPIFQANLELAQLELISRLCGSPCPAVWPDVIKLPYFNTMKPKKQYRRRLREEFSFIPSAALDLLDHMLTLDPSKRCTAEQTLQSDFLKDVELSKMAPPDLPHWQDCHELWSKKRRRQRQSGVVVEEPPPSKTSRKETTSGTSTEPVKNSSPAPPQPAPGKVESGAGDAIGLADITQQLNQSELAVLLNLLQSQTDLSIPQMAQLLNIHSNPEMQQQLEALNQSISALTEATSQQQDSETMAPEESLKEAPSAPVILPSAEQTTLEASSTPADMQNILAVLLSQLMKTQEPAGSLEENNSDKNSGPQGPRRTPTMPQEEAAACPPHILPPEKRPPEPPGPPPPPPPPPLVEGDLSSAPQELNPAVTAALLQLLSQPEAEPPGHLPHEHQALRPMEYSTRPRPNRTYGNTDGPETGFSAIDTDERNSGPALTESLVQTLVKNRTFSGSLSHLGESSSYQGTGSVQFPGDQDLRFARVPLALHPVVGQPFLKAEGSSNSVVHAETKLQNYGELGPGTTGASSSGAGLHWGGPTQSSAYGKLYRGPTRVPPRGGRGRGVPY
Sequence of protein kinases (human kinome) (Homo sapiens, UniProt Q2M2I8) (Q2M2I8 whole entry): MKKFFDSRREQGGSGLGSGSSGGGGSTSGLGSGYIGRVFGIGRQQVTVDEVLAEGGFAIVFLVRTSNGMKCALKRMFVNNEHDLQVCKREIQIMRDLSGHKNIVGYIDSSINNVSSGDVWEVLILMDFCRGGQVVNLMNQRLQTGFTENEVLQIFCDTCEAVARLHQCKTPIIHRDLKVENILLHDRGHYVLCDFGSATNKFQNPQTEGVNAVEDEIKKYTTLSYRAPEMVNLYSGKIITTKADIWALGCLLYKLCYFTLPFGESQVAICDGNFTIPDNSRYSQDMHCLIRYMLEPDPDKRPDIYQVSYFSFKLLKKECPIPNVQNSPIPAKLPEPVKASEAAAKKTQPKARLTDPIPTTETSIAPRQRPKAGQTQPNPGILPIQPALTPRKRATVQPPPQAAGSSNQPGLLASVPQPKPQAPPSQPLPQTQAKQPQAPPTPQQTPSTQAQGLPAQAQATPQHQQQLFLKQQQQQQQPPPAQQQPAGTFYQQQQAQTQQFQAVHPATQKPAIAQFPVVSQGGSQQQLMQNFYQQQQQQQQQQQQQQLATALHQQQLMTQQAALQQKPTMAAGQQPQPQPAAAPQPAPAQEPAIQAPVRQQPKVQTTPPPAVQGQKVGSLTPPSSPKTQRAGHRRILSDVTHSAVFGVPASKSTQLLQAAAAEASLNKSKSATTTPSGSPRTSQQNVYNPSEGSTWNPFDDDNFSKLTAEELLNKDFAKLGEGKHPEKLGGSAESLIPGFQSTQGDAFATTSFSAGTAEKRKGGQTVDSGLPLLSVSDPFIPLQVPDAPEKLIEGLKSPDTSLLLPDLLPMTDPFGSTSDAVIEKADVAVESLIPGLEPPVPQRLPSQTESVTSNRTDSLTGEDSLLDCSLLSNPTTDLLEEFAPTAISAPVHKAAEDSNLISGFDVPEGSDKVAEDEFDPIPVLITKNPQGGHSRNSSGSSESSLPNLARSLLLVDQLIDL
Sequence of protein kinases (human kinome) (Homo sapiens, UniProt P16591) (P16591 whole entry): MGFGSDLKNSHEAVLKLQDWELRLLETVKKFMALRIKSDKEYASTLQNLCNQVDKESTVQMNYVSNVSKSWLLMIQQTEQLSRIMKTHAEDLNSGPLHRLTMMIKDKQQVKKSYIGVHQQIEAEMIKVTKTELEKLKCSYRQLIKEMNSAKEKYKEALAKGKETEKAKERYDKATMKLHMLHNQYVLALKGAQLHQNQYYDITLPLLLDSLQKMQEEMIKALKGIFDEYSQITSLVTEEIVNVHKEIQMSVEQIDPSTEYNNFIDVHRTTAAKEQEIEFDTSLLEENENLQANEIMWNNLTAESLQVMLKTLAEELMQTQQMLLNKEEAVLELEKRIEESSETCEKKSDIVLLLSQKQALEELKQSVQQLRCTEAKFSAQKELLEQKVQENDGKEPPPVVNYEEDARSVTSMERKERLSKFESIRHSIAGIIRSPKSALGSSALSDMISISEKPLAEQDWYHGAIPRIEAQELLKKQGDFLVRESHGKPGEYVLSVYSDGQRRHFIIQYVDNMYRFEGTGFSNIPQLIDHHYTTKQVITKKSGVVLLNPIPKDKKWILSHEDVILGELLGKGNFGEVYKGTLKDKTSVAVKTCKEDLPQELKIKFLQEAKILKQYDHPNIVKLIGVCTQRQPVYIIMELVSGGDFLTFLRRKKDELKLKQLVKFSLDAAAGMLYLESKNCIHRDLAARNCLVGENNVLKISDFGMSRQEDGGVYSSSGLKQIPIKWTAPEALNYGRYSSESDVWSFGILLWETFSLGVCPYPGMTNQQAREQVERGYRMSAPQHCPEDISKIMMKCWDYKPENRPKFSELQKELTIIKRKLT
Sequence of protein kinases (human kinome) (Homo sapiens, UniProt P50613) (P50613 whole entry): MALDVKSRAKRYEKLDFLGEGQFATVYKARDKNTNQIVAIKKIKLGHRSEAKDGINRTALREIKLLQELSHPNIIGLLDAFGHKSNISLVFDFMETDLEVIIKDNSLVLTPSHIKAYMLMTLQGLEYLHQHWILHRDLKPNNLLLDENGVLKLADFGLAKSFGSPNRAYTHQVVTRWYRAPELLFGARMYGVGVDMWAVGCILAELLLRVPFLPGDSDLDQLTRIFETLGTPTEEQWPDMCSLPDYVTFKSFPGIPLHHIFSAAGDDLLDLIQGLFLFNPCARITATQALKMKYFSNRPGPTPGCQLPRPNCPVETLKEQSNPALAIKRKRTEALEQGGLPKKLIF
Sequence of protein kinases (human kinome) (Homo sapiens, UniProt P53671) (P53671 whole entry): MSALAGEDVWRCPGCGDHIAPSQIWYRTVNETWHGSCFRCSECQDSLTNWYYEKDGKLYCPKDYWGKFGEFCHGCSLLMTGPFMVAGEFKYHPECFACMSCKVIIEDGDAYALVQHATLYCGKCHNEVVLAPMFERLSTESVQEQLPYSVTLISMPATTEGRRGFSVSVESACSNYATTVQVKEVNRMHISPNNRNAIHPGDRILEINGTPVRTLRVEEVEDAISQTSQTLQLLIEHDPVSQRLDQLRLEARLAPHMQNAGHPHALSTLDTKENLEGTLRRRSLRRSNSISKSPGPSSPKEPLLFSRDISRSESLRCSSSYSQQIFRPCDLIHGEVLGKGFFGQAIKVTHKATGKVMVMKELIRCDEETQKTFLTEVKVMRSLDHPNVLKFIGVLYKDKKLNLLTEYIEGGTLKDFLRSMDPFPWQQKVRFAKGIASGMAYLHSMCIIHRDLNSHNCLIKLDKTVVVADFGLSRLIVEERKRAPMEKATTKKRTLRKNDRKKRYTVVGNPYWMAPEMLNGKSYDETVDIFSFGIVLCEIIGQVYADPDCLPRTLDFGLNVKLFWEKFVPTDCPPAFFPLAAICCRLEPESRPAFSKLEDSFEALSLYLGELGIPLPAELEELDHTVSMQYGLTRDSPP

N#CCc1ccc(Nc2nc(NCCCNC(=O)CCCCCCNC(=O)COc3cccc4c3C(=O)N(C3CCC(=O)NC3=O)C4=O)cc(Nc3cc(C4CC4)n[nH]3)n2)cc1 (centres unmarked) [SB1.G.190]
logFC GSK3B ([1]; Accession P49841-2, direction down): −0.631
logFC GSK3B ([1]; GSK3B P49841-2): −0.631
logFC [2]: −0.3508
logFC BMP2K [2]: −0.3508
logFC AAK1 ([3]; AAK1 (Q2M218-1), experiment wp056, down): −1.489
logFC AAK1 ([3]; AAK1, accession Q2M218-1, experiment wp056, direction of change down): −1.489
logFC AURKA (O14965) ([4]; experiment wp056): −0.843
logFC [5]: −0.8894
logFC GSK3A [5]: −0.8894

CC(C)S(=O)(=O)c1ccccc1Nc1nc(Nc2ccc(N3CCN(CCOCCOCCOCCNC(=O)CNc4cccc5c4C(=O)N(C4CCC(=O)NC4=O)C5=O)CC3)cc2)ncc1Cl (centres unmarked) [SK.3.87]
logFC [1]: −0.4714
logFC LCK ([1]; LCK, accession P06239-3, experiment wp016, direction of change down): −0.3484
logFC CDK9 (P50750-2) ([1]; experiment wp016): −0.4714
logFC LCK (P06239-3) [1, 21]: −0.3484
logFC of FER (P16591-1) ([6]; Experiment wp016): −1.97
logFC of FER ([6]; experiment wp016): −1.97
logFC of CDK5 ([7]; Accession Q00535, experiment wp016): −0.5732
logFC CDK5 (Q00535) [7, 21]: −0.5732
logFC [8]: −0.5325
logFC CDK7 ([8]; experiment wp016): −0.5325
logFC AAK1 ([3]; AAK1 (Q2M218-1), experiment wp016, down): −0.7307
logFC AAK1 ([3]; AAK1, accession Q2M218-1, experiment wp016, direction of change down): −0.7307
logFC of BLK ([9]; BLK P51451, experiment wp016): −0.9329
logFC of BLK (P51451) ([9]; Experiment wp016, down): −0.9329
logFC CDK2 (P24941-1) ([10]; experiment wp016): −0.3797
logFC CDK2 (P24941-1) [10, 21]: −0.3797
logFC AURKA (O14965) ([4]; experiment wp016): −1.381
logFC ([11]; PTK2B (Q14289-1) protein abundance, degrader vs DMSO, down): −3.217
logFC PTK2B ([11]; PTK2B, accession Q14289-1, experiment wp016, direction of change down): −3.217
logFC WEE1 (P30291-1) [12]: −0.9273
logFC LIMK2 ([13]; LIMK2 (P53671), down): −0.378
logFC of LIMK2 ([13]; LIMK2 P53671): −0.378
logFC CDK12 ([14]; Accession Q9NYV4-1, experiment wp016): −0.5073
logFC CDK12 ([14]; CDK12 (Q9NYV4-1), experiment wp016): −0.5073
logFC of CDK17 ([15]; experiment wp016): −0.6139
logFC CDK17 (Q00537) ([15]; experiment wp016): −0.6139
logFC ITK (Q08881) [16]: −1.868
logFC ITK (Q08881) ([16]; direction of change down): −1.868

COc1cc(N2CCN(CCOCCOCCNC(=O)CNc3cccc4c3C(=O)N(C3CCC(=O)NC3=O)C4=O)CC2)ccc1Nc1ncc(Cl)c(Nc2ccccc2S(=O)(=O)C(C)C)n1 (centres unmarked) [TL13.12]
logFC of FER (P16591-1) ([6]; Experiment wp011): −0.8459
logFC of FER ([6]; experiment wp011): −0.8459
logFC AURKA (O14965) ([4]; experiment wp011): −0.5988
logFC PTK2 ([17]; Accession Q05397, direction down): −1.365
logFC PTK2 ([17]; PTK2 Q05397): −1.365

NC(=O)c1c(F)cccc1Nc1nc(NC2CCN(S(=O)(=O)CCNC(=O)CCCCCCCCOc3cccc4c3C(=O)N(C3CCC(=O)NC3=O)C4=O)CC2)ncc1Br (centres unmarked) [TMX.01.160]
logFC [1]: −1.181
logFC MAPK8 (P45983-4) ([1]; Experiment wp146, direction down): −2.112
logFC MAPK8 ([1]; MAPK8 P45983-4, experiment wp146): −2.112
logFC RPS6KA1 ([1]; RPS6KA1 (Q15418-2), experiment wp146): −0.4317
logFC CDK9 (P50750-2) ([1]; experiment wp146): −1.181
logFC CDK16 (Q00536-2) ([1]; experiment wp146): −1.11
logFC RPS6KA1 (Q15418-2) ([1]; experiment wp146): −0.4317
logFC [18]: −3.32
logFC MAPK9 [18]: −3.32
logFC CDK5 (Q00535) ([7]; experiment wp146): −2.901
logFC CDK5 (Q00535) [7, 22]: −2.901
logFC [8]: −0.601
logFC CDK7 ([8]; experiment wp146): −0.601
logFC CDK2 (P24941-1) ([10]; experiment wp146): −1.971
logFC CDK2 (P24941-1) [10, 22]: −1.971
logFC AURKA (O14965) ([4]; experiment wp146): −2.621
logFC [19]: −1.423
logFC CDK1 [19]: −1.423
logFC CDK12 ([14]; Accession Q9NYV4-1, experiment wp146): −0.5118
logFC CDK12 ([14]; CDK12 (Q9NYV4-1), experiment wp146): −0.5118
logFC of CDK17 ([15]; experiment wp146): −1.627
logFC CDK17 (Q00537) ([15]; experiment wp146): −1.627

Nc1ncc(-c2ccc(S(=O)(=O)N(CCCNC(=O)CCOCCOCCOCCOCCOCCNc3cccc4c3C(=O)N(C3CCC(=O)NC3=O)C4=O)C3CC3)cc2)cc1-c1ccc2c(c1)CCNC2=O (centres unmarked) [WH.10414.099]
logFC CSNK1D ([1]; Accession P48730-2, direction down): −0.6187
logFC CSNK1D ([1]; CSNK1D P48730-2): −0.6187
logFC STK35 ([20]; Accession Q8TDR2, direction down): −0.8902
logFC STK35 ([20]; STK35 (Q8TDR2)): −0.8902
